According to patent US6291637A (priority 1999, dated 2001):
Where no end group is shown, it is not given here.

What was measured:
[1] = tested on: poliovirus IRES-dependent translation (P2CAT RNA); format: biochemical
[2] = tested on: cap-dependent translation (CAT RNA); format: biochemical
[3] = tested on: poliovirus 5'-UTR (IRES)-mediated translation; format: biochemical

5' GCGCGGGCAGCGCA 3' (chemistry not given here) [BI-RNA]
inhibition of poliovirus IRES-mediated translation of P2CAT RNA [1]: specifically inhibiting translation by internal initiation | inhibition of cap-dependent translation of CAT (pG3CAT/pCAT) RNA [2]: not cap dependent-translation

AALEAKICHQIEYYFGDF [LAP]
entry into human cells (PV): appears to freely diffuse into human cells | effect on cellular translation (cellular translation): does not interfere with cellular translation

B1: La protein (protein, UniProt P05455 1-408, looked up)
Lupus La protein: MAENGDNEKMAALEAKICHQIEYYFGDFNLPRDKFLKEQIKLDEGWVPLEIMIKFNRLNRLTTDFNVIVEALSKSKAELMEISEDKTKIRRSPSKPLPEVTDEYKNDVKNRSVYIKGFPTDATLDDIKEWLEDKGQVLNIQMRRTLHKAFKGSIFVVFDSIESAKKFVETPGQKYKETDLLILFKDDYFAKKNEERKQNKVEAKLRAKQEQEAKQKLEEDAEMKSLEEKIGCLLKFSGDLDDQTCREDLHILFSNHGEIKWIDFVRGAKEGIILFKEKAKEALGKAKDANNGNLQLRNKEVTWEVLEGEVEKEALKKIIEDQQESLNKWKSKGRRFKGKGKGNKAAQPGSGKGKVQFQGKKTKFASDDEHDEHDENGATGPVKRAREETDKEEPASKQQKTENGAGDQ
effect on viral 5'-UTR-mediated translation [3]: Significant stimulation | reversal of I-RNA-mediated inhibition of translation [3]: reversed
